Results on 22 molecules are retold here after patent publication US20250163057A1, “DCN-1 MODULATING COMPOUNDS AND METHODS OF USE THEREOF” (Cellarity, Inc., priority 2023, published 2025).

This test addresses DCN1 (DCUND1) protein PONY domain (Homo sapiens (Human), UniProt Q96GG9). As to the kind of experiment: TR-FRET assay, DCN1 binding with FAM-labeled probe. On the procedure:
A TR-FRET assay was performed to evaluate the ability of the compounds to bind the DCN-1 protein.
The TR-FRET assay was designed following the Scott et al. protocol (Scott et al., Nat Chem Biol. 2017 August; 13(8): 850-857. Doi:10.1038/nchembio.2386). The recombinant form of the DCN1 (DCUND1) protein PONY domain was produced using an E. coli expression system at Viva Biotech (China). The DCN1 protein was biotinylated (EZ sulfo-NHS-LC-biotin; Thermofisher) for labeling with streptavidin terbium (Tb) cryptate in the reaction. The probe was changed to a non-covalent DCN1 inhibitor labeled with carboxyfluorescein (FAM; Zhou et al., Nat Commun. 2017; 8: 1150. Doi: 10.1038/s41467-017-01243-7). Buffer conditions were modified to enhance protein stability by exchanging Tween20 for TritonX and increasing NaCl to 200 mM. The compounds were screened against 5 nM DCN1 and 20 nM FAM-probe or 0.31 nM DCN1 and 900 nM total probe (100 nM FAM-labeled plus 800 nM unlabeled). The TR-FRET ratio between Tb-DCN1 and the FAM-labeled probe was measured in a 384-well opti-plate (Perkin Elmer) using a plate reader (BMG) at 1, 5, and 24 hrs after treatment with compound (final DMSO concentration of 0.1%).
In general terms: In TR-FRET formats the signal depends on donor and acceptor labels being close together.

Where [1] appears, read: 24 hr after treatment with compound, read-out: TR FRET IC50 24 hr.
Setting [2] is: TR FRET IC50 1 hr (nM), 1 hr after treatment with compound.

The structures appear in SMILES notation. Where two headings read alike, the source gives them in different places. A value given as a limit tells only on which side of the number the result lay.

DCN1 (DCUND1) protein PONY domain, sequence (Q96GG9 60-248): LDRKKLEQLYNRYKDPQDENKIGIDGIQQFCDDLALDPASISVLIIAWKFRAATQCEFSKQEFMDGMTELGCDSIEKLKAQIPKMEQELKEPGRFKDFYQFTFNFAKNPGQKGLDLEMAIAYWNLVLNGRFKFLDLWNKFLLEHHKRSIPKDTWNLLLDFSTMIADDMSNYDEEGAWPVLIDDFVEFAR

As usually defined, the IC50 is the concentration at which inhibition is half-maximal. `C=C(C)S(=O)(=O)NCc1nn(-c2ccccc2)c2c1[C@H](c1ccc(F)cc1)[C@H](NC(=O)c1cccc(C(F)(F)F)c1)C(=O)N2CC` (racemic) [Compound I-54, rac-N-((4R,5R)-7-ethyl-4-(4-fluorophenyl)-3-(((1-methylvinyl)sulfonamido)methyl)-6-oxo-1-phenyl-4,5,6,7-tetrahydro-1H-pyrazolo[3,4-b]pyridin-5-yl)-3-(trifluoromethyl)benzamide]: the IC50 under setting [1] was 200 to 1000 nM and the IC50 under setting [2] is 200 to 1000 nM.

As to `CCN1C(=O)[C@@H](NC(=O)c2cccc(C(F)(F)F)c2)[C@@H](c2ccc(F)cc2)c2c(CNC(=O)/C=C/C(=O)O)nn(-c3ccccc3)c21` (racemic) [Compound I-59, rac-I-4-((((4R,5R)-7-ethyl-4-(4-fluorophenyl)-6-oxo-1-phenyl-5-(3-(trifluoromethyl)benzamido)-4,5,6,7-tetrahydro-1H-pyrazolo[3,4-b]pyridine-3-yl)methyl)amino)-4-oxobut-2-enoic acid], the half-inhibitory concentration (IC50) runs as follows: under setting [1], 1000 to 3000 nM; under setting [2], 1000 to 3000 nM.

As for `CCN1C(=O)[C@@H](NC(=O)c2cccc(C(F)(F)F)c2)[C@@H](c2ccc(F)cc2)c2c(CN(C#N)CCF)nn(-c3ccccc3)c21` (racemic) [Compound I-61], the 50% inhibitory concentration (IC50) by setting is: under setting [1], 200 to 1000 nM; under setting [2], 200 to 1000 nM.

Regarding `CCN1C(=O)[C@@H](NC(=O)c2cccc(C(F)(F)F)c2)[C@@H](c2ccc(F)cc2)c2c(NC(=O)C(C)(C)C#N)nn(-c3ccccc3)c21` (racemic) [Compound I-63], the IC50 under setting [1] lay in the range of 200 to 1000 nM.

Consider `CCN1C(=O)[C@@H](NC(=O)c2cccc(C(F)(F)F)c2)[C@@H](c2ccc(F)cc2)c2c(CNC(=O)/C=C/C(N)=O)nn(-c3ccccc3)c21` (racemic) [Compound I-64, rac-N1-(((4R,5R)-7-ethyl-4-(4-fluorophenyl)-6-oxo-1-phenyl-5-(3-(trifluoromethyl)benzamido)-4,5,6,7-tetrahydro-1H-pyrazolo[3,4-b]pyridine-3-yl)methyl)fumaramide], for which the half-inhibitory concentration (IC50) is, setting by setting: under setting [1], 200 to 1000 nM; under setting [2], 1000 to 3000 nM.

As for `CCN1C(=O)[C@@H](NC(=O)c2cccc(C(F)(F)F)c2)[C@@H](c2ccc(F)cc2)c2c(CNC(=O)C#CCN3CCOCC3)nn(-c3ccccc3)c21` (racemic) [Compound I-68, ˜{N}—[˜{rac}-(4˜{S},5˜{S})-7-ethyl-4-(4-fluorophenyl)-3-[(4-morpholinobut-2-ynoylamino)methyl]-6-oxo-1-phenyl-4,5-dihydropyrazolo[3,4-b]pyridine-5-yl]-3-(trifluoromethyl)benzamide], the IC50 is 200 to 1000 nM under setting [1] and 200 to 1000 nM under setting [2].

Turning to `CCN1C(=O)[C@@H](NC(=O)c2cccc(C(F)(F)F)c2)[C@@H](c2ccc(F)cc2)c2c(CC/C=C\C(=O)N(C)C)nn(-c3ccccc3)c21` (racemic) [Compound I-69], the concentration for half-maximal inhibition (IC50) under setting [1] was in the range of 200 to 1000 nM and the half-inhibitory concentration (IC50) under setting [2] was in the range of 200 to 1000 nM.

`CCN1C(=O)[C@@H](NC(=O)c2cccc(C(F)(F)F)c2)[C@@H](c2ccc(F)cc2)c2c(/C=C3/CCC(=O)N3)nn(-c3ccccc3)c21` (racemic) [Compound I-70, rac-N-((4R,5R)-7-ethyl-4-(4-fluorophenyl)-6-oxo-3-((Z)-(5-oxopyrrolidin-2-ylidene)methyl)-1-phenyl-4,5,6,7-tetrahydro-1H-pyrazolo[3,4-b]pyridin-5-yl)-3-(trifluoromethyl)benzamide]: the 50% inhibitory concentration (IC50) was in the range of 1000 to 3000 nM under setting [1] and 1000 to 3000 nM under setting [2].

On to `CCN1C(=O)[C@@H](NC(=O)c2cccc(C(F)(F)F)c2)[C@H](c2ccc(F)cc2)c2c(CNC(=O)C3=C(C(=O)OC)CCC3)nn(-c3ccccc3)c21` (racemic) [Compound I-71], for which the IC50 under setting [1] fell in the range of 200 to 1000 nM and the 50% inhibitory concentration (IC50) under setting [2] fell in the range of 200 to 1000 nM.

As for `C=C(Cc1nn(-c2ccccc2)c2c1[C@H](c1ccc(F)cc1)[C@H](NC(=O)c1cccc(C(F)(F)F)c1)C(=O)N2CC)C(=O)OC(C)(C)C` (racemic) [Compound I-78, rac-tert-butyl 2-(((4R,5R)-7-ethyl-4-(4-fluorophenyl)-6-oxo-1-phenyl-5-(3-(trifluoromethyl)benzamido)-4,5,6,7-tetrahydro-1H-pyrazolo[3,4-b]pyridin-3-yl)methyl)acrylate], the IC50 runs as follows: under setting [1], 1000 to 3000 nM; under setting [2], 1000 to 3000 nM.

In the case of `CCN1C(=O)[C@@H](NC(=O)c2cccc(C(F)(F)F)c2)[C@@H](c2ccc(F)cc2)c2c(C(=O)NCCC#N)nn(-c3ccccc3)c21` (racemic) [Compound I-81, rac-(4R,5R)—N-(2-cyanoethyl)-7-ethyl-4-(4-fluorophenyl)-6-oxo-1-phenyl-5-(3-(trifluoromethyl)benzamido)-4,5,6,7-tetrahydro-1H-pyrazolo[3,4-b]pyridine-3-carboxamide], the half-maximal inhibitory concentration (IC50) fell in the range of 1000 to 3000 nM under setting [1] and 1000 to 3000 nM under setting [2].

With `CCN1C(=O)[C@H](NC(=O)c2cccc(C(F)(F)F)c2)[C@H](c2ccc(F)cc2)c2c(CNC(=O)C3=CCN(C)C3)nn(-c3ccccc3)c21` (racemic) [Compound I-86, rac-N-(((4R,5R)-7-ethyl-4-(4-fluorophenyl)-6-oxo-1-phenyl-5-(3-(trifluoromethyl)benzamido)-4,5,6,7-tetrahydro-1H-pyrazolo[3,4-b]pyridin-3-yl)methyl)-1-methyl-2,5-dihydro-1H-pyrrole-3-carboxamide], the IC50 reads like this: under setting [1], 200 to 1000 nM; under setting [2], 200 to 1000 nM.

Turning to `CCN1C(=O)[C@@H](NC(=O)c2cccc(C(F)(F)F)c2)[C@@H](c2ccc(F)cc2)c2c(CC/C=C/C(=O)NC)nn(-c3ccccc3)c21` (racemic) [Compound I-91], the IC50 runs as follows: under setting [1], 200 to 1000 nM; under setting [2], 200 to 1000 nM.

On to `CCN1C(=O)[C@@H](NC(=O)c2cccc(C(F)(F)F)c2)[C@@H](c2ccc(F)cc2)c2c(NC(=O)C#CCN(C)C)nn(-c3ccccc3)c21` (racemic) [Compound I-93, rac-N-((4R,5R)-3-(4-(dimethylamino)but-2-ynamido)-7-ethyl-4-(4-fluorophenyl)-6-oxo-1-phenyl-4,5,6,7-tetrahydro-1H-pyrazolo[3,4-b]pyridine-5-yl)-3-(trifluoromethyl)benzamide], for which the concentration for half-maximal inhibition (IC50) is, setting by setting: under setting [1], not above 200 nM; under setting [2], not above 200 nM.

`C=C(CN1CC(F)(F)C1)C(=O)NCc1nn(-c2ccccc2)c2c1[C@H](c1ccc(F)cc1)[C@H](NC(=O)c1cccc(C(F)(F)F)c1)C(=O)N2CC` (racemic) [Compound I-95]: the IC50 runs as follows: under setting [1], 200 to 1000 nM; under setting [2], 200 to 1000 nM.

For `CCN1C(=O)[C@@H](NC(=O)c2cccc(C(F)(F)F)c2)[C@@H](c2ccc(F)cc2)c2c(CNCC#N)nn(-c3ccccc3)c21` (racemic) [Compound I-96, rac-N-((4R,5R)-3-(((cyanomethyl)amino)methyl)-7-ethyl-4-(4-fluorophenyl)-6-oxo-1-phenyl-4,5,6,7-tetrahydro-1H-pyrazolo[3,4-b]pyridine-5-yl)-3-(trifluoromethyl)benzamide], the 50% inhibitory concentration (IC50) is, setting by setting: under setting [1], 200 to 1000 nM; under setting [2], 200 to 1000 nM.

For the molecule `CCN1C(=O)[C@@H](NC(=O)c2cccc(C(F)(F)F)c2)[C@@H](C2CC2)c2c(CNC#N)nn(-c3ccccc3)c21` (racemic) [Compound I-98], the concentration for half-maximal inhibition (IC50) by setting is: under setting [1], not above 200 nM; under setting [2], 200 to 1000 nM.

`CCN1C(=O)[C@@H](NC(=O)c2cccc(C(F)(F)F)c2)[C@@H](c2ccc(F)cc2)c2c(C/C=C/C(=O)NCCCN(C)C)nn(-c3ccccc3)c21` (racemic) [Compound I-99]: the concentration for half-maximal inhibition (IC50) reads like this: under setting [1], 200 to 1000 nM; under setting [2], 200 to 1000 nM.

As for `CCN1C(=O)[C@@H](NC(=O)c2cccc(C(F)(F)F)c2)[C@@H](c2ccc(F)cc2)c2c(CNC(=O)C3(C#N)COC3)nn(-c3ccccc3)c21` (racemic) [Compound I-100, rac-3-cyano-N-(((4R,5R)-7-ethyl-4-(4-fluorophenyl)-6-oxo-1-phenyl-5-(3-(trifluoromethyl)benzamido)-4,5,6,7-tetrahydro-1H-pyrazolo[3,4-b]pyridine-3-yl)methyl)oxetane-3-carboxamide], the half-inhibitory concentration (IC50) is, setting by setting: under setting [1], 200 to 1000 nM; under setting [2], 200 to 1000 nM.

Consider `C=C(Cc1nn(-c2ccccc2)c2c1[C@H](c1ccc(F)cc1)[C@H](NC(=O)c1cccc(C(F)(F)F)c1)C(=O)N2CC)C(N)=O` (racemic) [Compound I-105, rac-N-((4R,5R)-3-(2-carbamoylallyl)-7-ethyl-4-(4-fluorophenyl)-6-oxo-1-phenyl-4,5,6,7-tetrahydro-1H-pyrazolo[3,4-b]pyridin-5-yl)-3-(trifluoromethyl)benzamide], for which the IC50 under setting [1] was in the range of 200 to 1000 nM and the IC50 under setting [2] fell in the range of 200 to 1000 nM.

As to `CCN1C(=O)[C@@H](NC(=O)c2cccc(C(F)(F)F)c2)[C@@H](c2ccc(F)cc2)c2c(NC(=O)C(F)Cl)nn(-c3ccccc3)c21` (mixture of isomers) [Compound I-120], the half-inhibitory concentration (IC50) fell in the range of 200 to 1000 nM under setting [1] and 200 to 1000 nM under setting [2].

For the molecule `CCN1C(=O)[C@@H](NC(=O)c2cccc(C(F)(F)F)c2)[C@@H](c2ccc(F)cc2)c2c(CC/C=C\C(=O)O)nn(-c3ccccc3)c21` (racemic) [Compound I-126, rac-(Z)-5-((4R,5R)-7-ethyl-4-(4-fluorophenyl)-6-oxo-1-phenyl-5-(3-(trifluoromethyl)benzamido)-4,5,6,7-tetrahydro-1H-pyrazolo[3,4-b]pyridin-3-yl)pent-2-enoic acid], the IC50 by setting is: under setting [1], 200 to 1000 nM; under setting [2], 200 to 1000 nM.
